According to patent US20240269139A1, “COMPOUNDS FOR TARGETED PROTEIN DEGRADATION OF KINASES” (DANA-FARBER CANCER INSTITUTE, INC., priority 2020, published 2024):
Like-named read-outs stand apart in the source and are kept apart here.

What was measured:
Assay type in all cases: cell-based
[1] = biological target: protein kinases (human kinome) (Homo sapiens, UniProt P16591); details: for logFC of FER (P16591-1): Experiment wp016, down; for logFC of FER: FER P16591-1, experiment wp016
Description: (§1) Although development of targeted protein degraders requires a POI binder, among already-liganded proteins such as kinases, it was hypothesized that different targets would have a different propensity for current approaches to degrader-mediated destruction, which was termed ‘degradability’. […] It was rationalized that the probability of identifying the same kinase as a false positive in multiple treatments is low, therefore this analysis served to also assess the robustness of our data and subsequent interpretations. […] Overall, 62 protein kinases were degraded in more than 10 independent treatments, and remarkably, 9 of these (CDK4, AURKA, FER, WEE1, BLK. LIMK2, CDK6, GAK, LIMK1) were each degraded in at least 40 of the 154 independent treatments, emphasizing their predisposition to induced degradation (FIG. 1G; Appendix I).
(§2) Next, the frequency of degradation assessment was corrected for over-representation of molecules in the full dataset by omitting replicate profiling of compounds under different experimental conditions, to remove any bias. […] Unsurprisingly, the top degradable kinases mirror those from the previous analysis (CDK4, AURKA, FER, WEE1, BLK), confirming that in sufficiently large datasets, even with over-representation of certain molecules, frequency of degradation is a good measure of general tractability.

[2] = biological target: protein kinases (human kinome) (Homo sapiens, UniProt Q00535); details: experiment wp016; for logFC of CDK5: Accession Q00535; for logFC CDK5 (Q00535): direction of change down
Description: as §1, §2

[3] = biological target: protein kinases (human kinome) (Homo sapiens, UniProt Q14004); details: experiment wp016
Description: as §1, §2

[4] = biological target: protein kinases (human kinome) (Homo sapiens, UniProt P24941); details: experiment wp016
Description: as §1, §2

[5] = biological target: protein kinases (human kinome) (Homo sapiens, UniProt P53671); details: experiment wp016; for logFC LIMK2: LIMK2 (P53671), down; for logFC of LIMK2: LIMK2 P53671
Chain of protein kinases (human kinome) (Homo sapiens, UniProt P53671) (P53671 whole entry): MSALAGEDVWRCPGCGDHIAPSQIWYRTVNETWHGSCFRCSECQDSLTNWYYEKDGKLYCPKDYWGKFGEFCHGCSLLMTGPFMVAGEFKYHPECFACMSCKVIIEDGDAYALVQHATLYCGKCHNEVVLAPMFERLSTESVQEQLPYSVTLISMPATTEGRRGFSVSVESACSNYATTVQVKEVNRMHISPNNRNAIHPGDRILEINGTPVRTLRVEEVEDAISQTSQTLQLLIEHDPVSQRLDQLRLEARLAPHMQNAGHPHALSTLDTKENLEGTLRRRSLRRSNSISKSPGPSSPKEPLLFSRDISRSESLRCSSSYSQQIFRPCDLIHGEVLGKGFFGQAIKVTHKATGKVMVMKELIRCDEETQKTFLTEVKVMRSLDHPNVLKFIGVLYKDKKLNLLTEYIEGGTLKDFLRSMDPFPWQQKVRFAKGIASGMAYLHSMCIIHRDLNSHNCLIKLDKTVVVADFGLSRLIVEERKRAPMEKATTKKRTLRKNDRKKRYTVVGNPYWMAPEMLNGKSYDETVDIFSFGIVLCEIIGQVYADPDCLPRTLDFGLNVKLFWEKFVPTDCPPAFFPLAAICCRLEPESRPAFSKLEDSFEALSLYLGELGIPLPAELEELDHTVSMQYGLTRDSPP
Description: as §1, §2

[6] = biological target: protein kinases (human kinome) (Homo sapiens, UniProt O94804); details: STK10 (O94804), experiment wp016
Description: as §1, §2

[7] = biological target: protein kinases (human kinome) (Homo sapiens, UniProt Q9NYV4); details: experiment wp016
Chain of protein kinases (human kinome) (Homo sapiens, UniProt Q9NYV4) (Q9NYV4 whole entry): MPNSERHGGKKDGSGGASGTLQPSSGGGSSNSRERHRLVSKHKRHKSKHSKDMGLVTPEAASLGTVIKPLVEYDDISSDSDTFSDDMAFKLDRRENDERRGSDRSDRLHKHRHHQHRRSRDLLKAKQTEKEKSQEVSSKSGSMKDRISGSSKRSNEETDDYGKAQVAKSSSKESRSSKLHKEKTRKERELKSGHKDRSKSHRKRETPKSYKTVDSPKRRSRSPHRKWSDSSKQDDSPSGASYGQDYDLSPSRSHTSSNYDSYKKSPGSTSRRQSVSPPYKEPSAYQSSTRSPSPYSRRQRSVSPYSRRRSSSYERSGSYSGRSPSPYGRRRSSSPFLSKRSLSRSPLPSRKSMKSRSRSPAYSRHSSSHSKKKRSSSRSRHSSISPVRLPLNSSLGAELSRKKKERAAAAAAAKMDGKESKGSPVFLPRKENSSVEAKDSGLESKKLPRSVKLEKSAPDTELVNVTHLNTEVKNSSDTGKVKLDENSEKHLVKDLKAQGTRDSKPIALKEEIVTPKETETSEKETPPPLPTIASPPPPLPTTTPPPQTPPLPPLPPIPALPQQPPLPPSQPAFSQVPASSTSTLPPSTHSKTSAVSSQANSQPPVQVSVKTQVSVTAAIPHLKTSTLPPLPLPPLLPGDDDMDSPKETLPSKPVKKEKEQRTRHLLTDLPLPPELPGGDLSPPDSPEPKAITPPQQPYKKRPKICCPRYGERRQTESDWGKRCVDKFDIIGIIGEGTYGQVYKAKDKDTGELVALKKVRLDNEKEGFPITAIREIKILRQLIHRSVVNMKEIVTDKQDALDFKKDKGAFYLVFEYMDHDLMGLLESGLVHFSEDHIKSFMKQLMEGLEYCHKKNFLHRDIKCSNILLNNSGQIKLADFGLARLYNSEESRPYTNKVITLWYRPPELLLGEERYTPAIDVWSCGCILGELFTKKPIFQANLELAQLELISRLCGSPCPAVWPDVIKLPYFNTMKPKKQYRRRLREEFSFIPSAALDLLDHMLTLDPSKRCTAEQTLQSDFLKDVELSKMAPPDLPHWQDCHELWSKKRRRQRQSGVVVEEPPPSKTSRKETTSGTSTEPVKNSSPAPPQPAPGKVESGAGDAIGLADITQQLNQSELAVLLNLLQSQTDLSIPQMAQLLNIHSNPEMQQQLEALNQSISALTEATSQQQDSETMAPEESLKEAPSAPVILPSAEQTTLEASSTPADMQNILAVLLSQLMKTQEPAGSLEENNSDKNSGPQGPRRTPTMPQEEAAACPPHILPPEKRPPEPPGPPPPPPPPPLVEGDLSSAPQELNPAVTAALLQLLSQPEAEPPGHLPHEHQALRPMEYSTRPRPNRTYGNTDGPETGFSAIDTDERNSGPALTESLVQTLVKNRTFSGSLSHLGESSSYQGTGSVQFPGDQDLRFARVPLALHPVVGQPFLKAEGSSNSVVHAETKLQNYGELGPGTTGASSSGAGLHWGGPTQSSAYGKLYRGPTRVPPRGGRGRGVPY
Description: as §1, §2

[8] = test system: protein kinases (human kinome); details: for logFC: CDK9 (P50750-2) protein abundance, degrader vs DMSO, down; for logFC LCK: accession P06239-3; for logFC LCK / logFC LCK (P06239-3): direction of change down
Description: as §1, §2

[9] = biological target: protein kinases (human kinome) (Homo sapiens, UniProt Q2M2I8); details: experiment wp016
Chain of protein kinases (human kinome) (Homo sapiens, UniProt Q2M2I8) (Q2M2I8 whole entry): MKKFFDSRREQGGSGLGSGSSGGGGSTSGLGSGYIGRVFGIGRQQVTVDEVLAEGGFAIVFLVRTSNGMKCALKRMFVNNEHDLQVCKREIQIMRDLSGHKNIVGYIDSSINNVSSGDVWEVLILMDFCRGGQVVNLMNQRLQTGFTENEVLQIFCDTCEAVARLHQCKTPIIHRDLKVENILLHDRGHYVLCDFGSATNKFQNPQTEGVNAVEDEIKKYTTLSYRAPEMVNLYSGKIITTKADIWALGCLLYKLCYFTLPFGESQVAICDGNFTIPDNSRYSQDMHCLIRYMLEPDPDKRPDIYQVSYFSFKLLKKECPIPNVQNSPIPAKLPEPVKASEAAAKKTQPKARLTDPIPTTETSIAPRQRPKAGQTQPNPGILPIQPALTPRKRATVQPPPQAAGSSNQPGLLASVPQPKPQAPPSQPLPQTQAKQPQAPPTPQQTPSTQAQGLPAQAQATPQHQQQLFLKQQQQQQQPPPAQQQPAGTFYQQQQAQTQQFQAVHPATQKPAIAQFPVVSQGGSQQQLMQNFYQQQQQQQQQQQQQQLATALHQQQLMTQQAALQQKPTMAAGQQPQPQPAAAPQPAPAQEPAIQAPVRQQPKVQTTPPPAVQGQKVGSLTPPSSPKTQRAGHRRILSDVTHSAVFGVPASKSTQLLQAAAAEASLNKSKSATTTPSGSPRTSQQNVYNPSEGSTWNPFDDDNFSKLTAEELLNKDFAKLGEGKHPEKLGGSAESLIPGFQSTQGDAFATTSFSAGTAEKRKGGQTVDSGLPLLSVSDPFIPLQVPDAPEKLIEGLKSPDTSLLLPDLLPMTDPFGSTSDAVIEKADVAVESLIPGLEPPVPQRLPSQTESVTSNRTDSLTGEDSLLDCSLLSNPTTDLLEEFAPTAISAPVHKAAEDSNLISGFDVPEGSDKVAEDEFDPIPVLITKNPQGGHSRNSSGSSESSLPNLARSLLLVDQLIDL
Description: as §1, §2

[10] = biological target: protein kinases (human kinome) (Homo sapiens, UniProt P30291); details: experiment wp016
Chain of protein kinases (human kinome) (Homo sapiens, UniProt P30291) (P30291 whole entry): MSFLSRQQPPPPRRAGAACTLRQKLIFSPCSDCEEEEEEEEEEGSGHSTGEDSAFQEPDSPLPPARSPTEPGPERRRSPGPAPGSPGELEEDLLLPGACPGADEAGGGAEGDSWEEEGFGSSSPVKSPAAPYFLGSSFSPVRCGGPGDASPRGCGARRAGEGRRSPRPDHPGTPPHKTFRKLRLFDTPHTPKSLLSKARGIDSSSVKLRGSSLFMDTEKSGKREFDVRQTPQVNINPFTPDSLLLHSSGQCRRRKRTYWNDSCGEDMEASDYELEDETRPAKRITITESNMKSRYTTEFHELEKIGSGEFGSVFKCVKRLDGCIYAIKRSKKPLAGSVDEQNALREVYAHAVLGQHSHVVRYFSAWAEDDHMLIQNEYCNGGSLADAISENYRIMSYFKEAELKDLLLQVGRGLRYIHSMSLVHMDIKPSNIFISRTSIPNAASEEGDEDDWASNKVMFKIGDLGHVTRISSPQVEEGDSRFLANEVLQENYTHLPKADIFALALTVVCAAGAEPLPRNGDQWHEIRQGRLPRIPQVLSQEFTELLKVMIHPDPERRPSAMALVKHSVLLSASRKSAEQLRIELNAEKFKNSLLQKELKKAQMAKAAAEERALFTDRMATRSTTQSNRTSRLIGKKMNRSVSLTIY
Description: as §1, §2

[11] = biological target: T1, protein kinases (human kinome) (Homo sapiens, UniProt O14965); details: experiment wp016
T1 sequence (O14965 1-403): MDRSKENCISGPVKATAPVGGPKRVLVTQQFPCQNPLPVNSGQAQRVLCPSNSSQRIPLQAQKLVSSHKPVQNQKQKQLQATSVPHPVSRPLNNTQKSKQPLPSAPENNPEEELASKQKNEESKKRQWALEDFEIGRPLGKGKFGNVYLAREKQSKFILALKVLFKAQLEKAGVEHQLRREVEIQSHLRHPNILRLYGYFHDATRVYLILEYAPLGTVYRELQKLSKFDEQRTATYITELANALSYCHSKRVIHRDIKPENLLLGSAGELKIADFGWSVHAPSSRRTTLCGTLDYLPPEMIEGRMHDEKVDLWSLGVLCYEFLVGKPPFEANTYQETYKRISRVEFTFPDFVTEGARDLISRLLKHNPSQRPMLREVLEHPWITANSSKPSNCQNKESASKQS
Description: as §1, §2

[12] = biological target: protein kinases (human kinome) (Homo sapiens, UniProt P50613); details: for logFC: CDK7 (P50613) protein abundance, degrader vs DMSO, down; for logFC CDK7: CDK7 P50613, experiment wp016
Description: as §1, §2

[13] = biological target: protein kinases (human kinome) (Homo sapiens, UniProt Q9NSY1); details: BMP2K Q9NSY1; experiment wp016
Description: as §1, §2

[14] = biological target: protein kinases (human kinome) (Homo sapiens, UniProt P11802); details: experiment wp016
Chain of protein kinases (human kinome) (Homo sapiens, UniProt P11802) (P11802 whole entry): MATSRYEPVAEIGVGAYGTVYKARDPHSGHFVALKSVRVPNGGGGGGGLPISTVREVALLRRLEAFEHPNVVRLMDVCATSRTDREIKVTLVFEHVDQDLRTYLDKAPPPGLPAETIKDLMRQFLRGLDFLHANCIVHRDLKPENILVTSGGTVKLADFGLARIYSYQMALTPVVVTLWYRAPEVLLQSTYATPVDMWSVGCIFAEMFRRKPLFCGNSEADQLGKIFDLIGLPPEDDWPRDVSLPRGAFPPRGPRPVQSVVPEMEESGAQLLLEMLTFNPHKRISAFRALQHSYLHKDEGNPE
Description: as §1, §2

[15] = biological target: protein kinases (human kinome) (Homo sapiens, UniProt Q00534); details: for logFC CDK6: CDK6 (Q00534), direction down, experiment wp016; for logFC of CDK6 (Q00534): Experiment wp016, down
Chain of protein kinases (human kinome) (Homo sapiens, UniProt Q00534) (Q00534 whole entry): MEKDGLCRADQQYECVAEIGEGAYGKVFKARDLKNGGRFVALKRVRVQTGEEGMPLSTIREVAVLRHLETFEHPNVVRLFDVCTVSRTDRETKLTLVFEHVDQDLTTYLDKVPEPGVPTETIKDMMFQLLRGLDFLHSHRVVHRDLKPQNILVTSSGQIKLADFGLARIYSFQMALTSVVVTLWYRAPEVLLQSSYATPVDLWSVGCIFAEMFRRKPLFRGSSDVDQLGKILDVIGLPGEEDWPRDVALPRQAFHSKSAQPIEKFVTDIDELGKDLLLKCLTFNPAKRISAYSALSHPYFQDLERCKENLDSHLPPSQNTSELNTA
Description: as §1, §2

[16] = biological target: T2, protein kinases (human kinome) (Homo sapiens, UniProt Q08881); details: experiment wp016
T2 sequence (Q08881 1-620): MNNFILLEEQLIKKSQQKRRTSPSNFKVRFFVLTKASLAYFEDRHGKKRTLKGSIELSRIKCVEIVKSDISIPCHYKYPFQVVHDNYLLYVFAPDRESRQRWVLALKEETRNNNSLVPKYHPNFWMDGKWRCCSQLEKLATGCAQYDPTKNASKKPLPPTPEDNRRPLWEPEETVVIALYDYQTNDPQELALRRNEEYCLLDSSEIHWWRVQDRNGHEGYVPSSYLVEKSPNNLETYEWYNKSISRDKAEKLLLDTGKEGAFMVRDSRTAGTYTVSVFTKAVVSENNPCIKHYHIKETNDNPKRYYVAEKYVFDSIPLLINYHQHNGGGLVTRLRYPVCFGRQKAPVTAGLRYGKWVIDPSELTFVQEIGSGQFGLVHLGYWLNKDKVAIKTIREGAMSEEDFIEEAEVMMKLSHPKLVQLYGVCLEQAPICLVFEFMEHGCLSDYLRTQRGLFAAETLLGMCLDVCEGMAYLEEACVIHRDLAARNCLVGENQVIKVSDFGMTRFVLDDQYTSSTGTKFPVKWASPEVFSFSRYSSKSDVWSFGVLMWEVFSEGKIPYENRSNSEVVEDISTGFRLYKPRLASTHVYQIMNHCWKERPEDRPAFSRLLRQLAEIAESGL
Description: as §1, §2

[17] = biological target: protein kinases (human kinome) (Homo sapiens, UniProt Q00537); details: experiment wp016; for logFC of CDK17: Accession Q00537; for logFC CDK17 (Q00537): direction of change down
Description: as §1, §2

[18] = biological target: protein kinases (human kinome) (Homo sapiens, UniProt Q14289); details: for logFC: PTK2B (Q14289-1) protein abundance, degrader vs DMSO, down; for logFC PTK2B: accession Q14289-1, experiment wp016, direction of change down
Description: as §1, §2

[19] = biological target: protein kinases (human kinome) (Homo sapiens, UniProt P51451); details: for logFC of BLK: BLK P51451, experiment wp016; for logFC of BLK (P51451): Experiment wp016, down
Chain of protein kinases (human kinome) (Homo sapiens, UniProt P51451) (P51451 whole entry): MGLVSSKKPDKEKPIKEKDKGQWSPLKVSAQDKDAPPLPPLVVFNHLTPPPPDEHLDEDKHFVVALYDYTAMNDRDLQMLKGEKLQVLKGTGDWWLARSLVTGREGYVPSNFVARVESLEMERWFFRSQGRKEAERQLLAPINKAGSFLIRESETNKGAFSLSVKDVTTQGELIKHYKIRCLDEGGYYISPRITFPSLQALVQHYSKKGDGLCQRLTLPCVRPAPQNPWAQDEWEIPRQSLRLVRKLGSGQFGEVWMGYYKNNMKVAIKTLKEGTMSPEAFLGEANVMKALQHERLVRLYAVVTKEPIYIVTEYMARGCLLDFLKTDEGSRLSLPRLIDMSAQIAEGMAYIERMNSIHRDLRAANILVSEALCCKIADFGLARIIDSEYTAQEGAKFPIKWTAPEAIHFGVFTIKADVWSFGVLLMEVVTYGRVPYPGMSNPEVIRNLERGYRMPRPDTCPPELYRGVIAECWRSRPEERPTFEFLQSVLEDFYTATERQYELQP
Description: as §1, §2

[20] = AAK1, accession Q2M218-1, direction of change down

Compound | logFC of FER (P16591-1) [1] | logFC of FER [1] | logFC of CDK5 [2] | logFC CDK5 (Q00535) [2] | logFC CDK2 (P24941-1) [4] | logFC CDK2 (P24941-1) ([4]; direction of change down) | logFC LIMK2 [5] | logFC of LIMK2 [5] | logFC [6] | logFC ([6]; direction down) | logFC CDK12 ([7]; Accession Q9NYV4-1) | logFC CDK12 ([7]; CDK12 (Q9NYV4-1)) | logFC [8] | logFC LCK ([8]; experiment wp016) | logFC CDK9 (P50750-2) ([8]; experiment wp016) | logFC LCK (P06239-3) ([8]; experiment wp016) | logFC AAK1 ([9]; AAK1 (Q2M218-1), down) | logFC AAK1 [9, 20] | logFC WEE1 (P30291-1) [10] | logFC AURKA (O14965) [11] | also measured
CC(C)S(=O)(=O)c1ccccc1Nc1nc(Nc2ccc(N3CCN(CCOCCOCCNC(=O)CNc4ccc5c(c4)C(=O)N(C4CCC(=O)NC4=O)C5=O)CC3)cc2)ncc1Cl (stereo not drawn) [LT2.49] | −2.467 | −2.467 | −0.8608 | −0.8608 | −0.5177 | −0.5177 | −0.9573 | −0.9573 | −0.3336 | −0.3336 | −0.868 | −0.868 | −0.6469 | −0.6186 | −0.6469 | −0.6186 | −1.778 | −1.778 | −1.314 | −1.853 | logFC CDK13 ([3]; Accession Q14004-1): −0.3839; logFC CDK13 (Q14004-1) [3]: −0.3839; logFC PRKAA1 (Q13131-2) ([8]; Experiment wp016, direction down): −0.3739; logFC PRKAA1 (Q13131-2) ([8]; experiment wp016): −0.3739; logFC [12]: −1.014; logFC CDK7 [12]: −1.014; logFC [13]: −0.5079; logFC BMP2K [13]: −0.5079; logFC CDK4 (P11802) [14]: −0.8985; logFC CDK6 [15]: −0.6531; logFC of CDK6 (Q00534) [15]: −0.6531; logFC ITK (Q08881) [16]: −2.212; logFC ITK (Q08881) ([16]; direction of change down): −2.212; logFC of CDK17 [17]: −0.7544; logFC CDK17 (Q00537) [17]: −0.7544; logFC [18]: −3.365; logFC PTK2B [18]: −3.365; logFC of BLK [19]: −1.613; logFC of BLK (P51451) [19]: −1.613
CC(C)S(=O)(=O)c1ccccc1Nc1nc(Nc2ccc(N3CCN(CCOCCOCCOCCNC(=O)CNc4ccc5c(c4)C(=O)N(C4CCC(=O)NC4=O)C5=O)CC3)cc2)ncc1Cl (stereo not drawn) [SK.3.89] | −2.262 | −2.262 | −0.6254 | −0.6254 | −0.5953 | −0.5953 | −0.444 | −0.444 | −0.3539 | −0.3539 | −0.5237 | −0.5237 | −0.4777 | −0.449 | −0.4777 | −0.449 | −1.219 | −1.219 | −1.017 | −1.672 | logFC [12]: −0.7959; logFC CDK7 [12]: −0.7959; logFC CDK4 (P11802) [14]: −0.5177; logFC CDK6 [15]: −0.3396; logFC of CDK6 (Q00534) [15]: −0.3396; logFC ITK (Q08881) [16]: −2.044; logFC ITK (Q08881) ([16]; direction of change down): −2.044; logFC of CDK17 [17]: −0.6057; logFC CDK17 (Q00537) [17]: −0.6057; logFC [18]: −3.554; logFC PTK2B [18]: −3.554; logFC of BLK [19]: −1.335; logFC of BLK (P51451) [19]: −1.335
